According to patent publication US20220169628A1 (University of Florida Research Foundation, Incorporated, priority 2019, published 2022):
Read-outs that look alike come from different tables or passages of the source.

Columns and labels:
MOLT-4 cells = test: Cell viability assay, MTS, 48 h, MOLT-4; type: cell-based; details: 48 hours, read-out: IC50 (48 hours) MOLT-4
Method: (§1) Acute lymphoblastic leukemia cells (MOLT-4 and RS4; 11) or small cell lung cancer (NCI-H146 or simply H146) were incubated with increasing concentrations of Bcl-xL degraders for 48 h. Cell viability was measured by tetrazolium-based MTS assay.

RS4;11 cells = test: Cell viability assay, MTS, 48 h, RS4;11; type: cell-based; details: 48 hours, read-out: IC50 (48 hours) RS4;11
Method: as §1

IC50 (MOLT-4 cells; Homo sapiens, MOLT-4, 48 h) [nM]	IC50 (RS4;11 cells; Homo sapiens, RS4-11, 48 h) [nM]	Compound	IC50 (MOLT-4 cells) [nM]	IC50 (RS4;11 cells) [nM]
< 50	< 50	Cc1ncsc1-c1ccc([C@H](C)NC(=O)[C@@H]2C[C@@H](O)CN2C(=O)[C@@H](NC(=O)CCCCCCC(=O)N2CCN(C[C@]3(C)CCC(c4ccc(Cl)cc4)=C(CN4CCN(c5ccc(C(=O)NS(=O)(=O)c6ccc(N[C@H](CCN7CCOCC7)CSc7ccccc7)c(S(=O)(=O)C(F)(F)F)c6)cc5)CC4)C3)CC2)C(C)(C)C)cc1 [degrader #44, (2S,4R)-1-((S)-2-(8-(4-(((R)-4′-chloro-4-methyl-6-((4-(4-(((4-(((R)-4-morpholino-1-(phenylthio)butan-2-yl)amino)-3-((trifluoromethyl)sulfonyl)phenyl)sulfonyl)carbamoyl)phenyl)piperazin-1-yl)methyl)-2,3,4,5-tetrahydro-[1,1′-biphenyl]-4-yl)methyl)piperazin-1-yl)-8-oxooctanamido)-3,3-dimethylbutanoyl)-4-hydroxy-N—((S)-1-(4-(4-methylthiazol-5-yl)phenyl)ethyl)pyrrolidine-2-carboxamide]	–	–
> 500	> 500	Cc1ncsc1-c1ccc([C@H](C)NC(=O)[C@@H]2C[C@@H](O)CN2C(=O)[C@@H](NC(=O)COCCOCCOCCOC(=O)N2CCC(c3ccc(Cl)cc3)=C(CN3CCN(c4ccc(C(=O)NS(=O)(=O)c5ccc(N[C@H](CCN6CCOCC6)CSc6ccccc6)c(S(=O)(=O)C(F)(F)F)c5)cc4)CC3)C2)C(C)(C)C)cc1 [compound 86, (S)-13-((2S,4R)-4-hydroxy-2-(((S)-1-(4-(4-methylthiazol-5-yl)phenyl)ethyl)carbamoyl)pyrrolidine-1-carbonyl)-14,14-dimethyl-11-oxo-3,6,9-trioxa-12-azapentadecyl 4-(4-chlorophenyl)-5-((4-(4-(((4-(((R)-4-morpholino-1-(phenylthio)butan-2-yl)amino)-3-((trifluoromethyl)sulfonyl)phenyl)sulfonyl)carbamoyl)phenyl)piperazin-1-yl)methyl)-3,6-dihydropyridine-1(2H)-carboxylate]	–	–
50 to 150	150 to 500	Cc1ncsc1-c1ccc([C@H](C)NC(=O)[C@@H]2C[C@@H](O)CN2C(=O)[C@@H](NC(=O)CCCCCCCCC(=O)N2CCC(c3ccc(Cl)cc3)=C(CN3CCN(c4ccc(C(=O)NS(=O)(=O)c5ccc(N[C@H](CCN6CCOCC6)CSc6ccccc6)c(S(=O)(=O)C(F)(F)F)c5)cc4)CC3)C2)C(C)(C)C)cc1 [compound 83, (2S,4R)-1-((S)-2-(10-(4-(4-chlorophenyl)-5-((4-(4-(((4-(((R)-4-morpholino-1-(phenylthio)butan-2-yl)amino)-3-((trifluoromethyl)sulfonyl)phenyl)sulfonyl)carbamoyl)phenyl)piperazin-1-yl)methyl)-3,6-dihydropyridin-1(2H)-yl)-10-oxodecanamido)-3,3-dimethylbutanoyl)-4-hydroxy-N—((S)-1-(4-(4-methylthiazol-5-yl)phenyl)ethyl)pyrrolidine-2-carboxamide]	–	–
< 50	< 50	Cc1ncsc1-c1ccc([C@H](C)NC(=O)[C@@H]2C[C@@H](O)CN2C(=O)[C@@H](NC(=O)CCCCCCC(=O)N2CCC3(CCN(CC4(C)CCC(c5ccc(Cl)cc5)=C(CN5CCN(c6ccc(C(=O)NS(=O)(=O)c7ccc(N[C@H](CCN8CCOCC8)CSc8ccccc8)c(S(=O)(=O)C(F)(F)F)c7)cc6)CC5)C4)CC3)CC2)C(C)(C)C)cc1 (stereo partly drawn) [degrader #29, (2S,4R)-1-((2S)-2-(8-(9-((4′-chloro-4-methyl-6-((4-(4-(((4-(((R)-4-morpholino-1-(phenylthio)butan-2-yl)amino)-3-((trifluoromethyl)sulfonyl)phenyl)sulfonyl)carbamoyl)phenyl)piperazin-1-yl)methyl)-2,3,4,5-tetrahydro-[1,1′-biphenyl]-4-yl)methyl)-3,9-diazaspiro[5.5]undecan-3-yl)-8-oxooctanamido)-3,3-dimethylbutanoyl)-4-hydroxy-N—((S)-1-(4-(4-methylthiazol-5-yl)phenyl)ethyl)pyrrolidine-2-carboxamide]	–	–

The next lines start with the compound.

Compound	IC50 (MOLT-4 cells; Homo sapiens, MOLT-4, 48 h) [nM]	IC50 (RS4;11 cells; Homo sapiens, RS4-11, 48 h) [nM]	IC50 (MOLT-4 cells) [nM]	IC50 (RS4;11 cells) [nM]
CC1(CNC(=O)CCCCNc2cccc3c2C(=O)N(C2CCC(=O)NC2=O)C3=O)CCC(c2ccc(Cl)cc2)=C(CN2CCN(c3ccc(C(=O)NS(=O)(=O)c4ccc(N[C@H](CCN5CCOCC5)CSc5ccccc5)c(S(=O)(=O)C(F)(F)F)c4)cc3)CC2)C1 (stereo partly drawn) [compound 70, 4-(4-((4′-chloro-4-((5-((2-(2,6-dioxopiperidin-3-yl)-1,3-dioxoisoindolin-4-yl)amino)pentanamido)methyl)-4-methyl-3,4,5,6-tetrahydro-[1,1′-biphenyl]-2-yl)methyl)piperazin-1-yl)-N-((4-(((R)-4-morpholino-1-(phenylthio)butan-2-yl)amino)-3-((trifluoromethyl)sulfonyl)phenyl)sulfonyl)benzamide]	50 to 150	50 to 150	–	–
Cc1ncsc1-c1ccc([C@H](C)NC(=O)[C@@H]2C[C@@H](O)CN2C(=O)[C@@H](NC(=O)CCCCCC(=O)N2CC3(CCN(CC4(C)CCC(c5ccc(Cl)cc5)=C(CN5CCN(c6ccc(C(=O)NS(=O)(=O)c7ccc(N[C@H](CCN8CCOCC8)CSc8ccccc8)c(S(=O)(=O)C(F)(F)F)c7)cc6)CC5)C4)CC3)C2)C(C)(C)C)cc1 (stereo partly drawn) [degrader #31, (2S,4R)-1-((2S)-2-(7-(7-((4′-chloro-4-methyl-6-((4-(4-(((4-(((R)-4-morpholino-1-(phenylthio)butan-2-yl)amino)-3-((trifluoromethyl)sulfonyl)phenyl)sulfonyl)carbamoyl)phenyl)piperazin-1-yl)methyl)-2,3,4,5-tetrahydro-[1,1′-biphenyl]-4-yl)methyl)-2,7-diazaspiro[3.5]nonan-2-yl)-7-oxoheptanamido)-3,3-dimethylbutanoyl)-4-hydroxy-N—((S)-1-(4-(4-methylthiazol-5-yl)phenyl)ethyl)pyrrolidine-2-carboxamide]	50 to 150	< 50	–	–
Cc1ncsc1-c1ccc([C@H](C)NC(=O)[C@@H]2C[C@@H](O)CN2C(=O)[C@@H](NC(=O)CCCCCCC(=O)N[C@H]2CCCN(CC3(C)CCC(c4ccc(Cl)cc4)=C(CN4CCN(c5ccc(C(=O)NS(=O)(=O)c6ccc(N[C@H](CCN7CCOCC7)CSc7ccccc7)c(S(=O)(=O)C(F)(F)F)c6)cc5)CC4)C3)C2)C(C)(C)C)cc1 (stereo partly drawn) [degrader #47, N1-((3S)-1-((4′-chloro-4-methyl-6-((4-(4-(((4-(((R)-4-morpholino-1-(phenylthio)butan-2-yl)amino)-3-((trifluoromethyl)sulfonyl)phenyl)sulfonyl)carbamoyl)phenyl)piperazin-1-yl)methyl)-2,3,4,5-tetrahydro-[1,1′-biphenyl]-4-yl)methyl)piperidin-3-yl)-N8-((S)-1-((2S,4R)-4-hydroxy-2-(((S)-1-(4-(4-methylthiazol-5-yl)phenyl)ethyl)carbamoyl)pyrrolidin-1-yl)-3,3-dimethyl-1-oxobutan-2-yl)octanediamide]	50 to 150	50 to 150	–	–
Cc1ncsc1-c1ccc([C@H](C)NC(=O)[C@@H]2C[C@@H](O)CN2C(=O)[C@@H](NC(=O)COCCOCCOCCOCC(=O)NCC2(C)CCC(c3ccc(Cl)cc3)=C(CN3CCN(c4ccc(C(=O)NS(=O)(=O)c5ccc(N[C@H](CCN6CCOCC6)CSc6ccccc6)c(S(=O)(=O)C(F)(F)F)c5)cc4)CC3)C2)C(C)(C)C)cc1 (stereo partly drawn) [degrader #9, N1-((4′-chloro-4-methyl-6-((4-(4-(((4-(((R)-4-morpholino-1-(phenylthio)butan-2-yl)amino)-3-((trifluoromethyl)sulfonyl)phenyl)sulfonyl)carbamoyl)phenyl)piperazin-1-yl)methyl)-2,3,4,5-tetrahydro-[1,1′-biphenyl]-4-yl)methyl)-N14-((S)-1-((2S,4R)-4-hydroxy-2-(((S)-1-(4-(4-methylthiazol-5-yl)phenyl)ethyl)carbamoyl)pyrrolidin-1-yl)-3,3-dimethyl-1-oxobutan-2-yl)-3,6,9,12-tetraoxatetradecanediamide]	> 500	150 to 500	–	–
Cc1ncsc1-c1ccc([C@H](C)NC(=O)[C@@H]2C[C@@H](O)CN2C(=O)[C@@H](NC(=O)CCCCC#CC#CC2(C)CCC(c3ccc(Cl)cc3)=C(CN3CCN(c4ccc(C(=O)NS(=O)(=O)c5ccc(N[C@H](CCN6CCOCC6)CSc6ccccc6)c(S(=O)(=O)C(F)(F)F)c5)cc4)CC3)C2)C(C)(C)C)cc1 (stereo partly drawn) [degrader #11, (2S,4R)-1-((2S)-2-(9-(4′-chloro-4-methyl-6-((4-(4-(((4-(((R)-4-morpholino-1-(phenylthio)butan-2-yl)amino)-3-((trifluoromethyl)sulfonyl)phenyl)sulfonyl)carbamoyl)phenyl)piperazin-1-yl)methyl)-2,3,4,5-tetrahydro-[1,1′-biphenyl]-4-yl)nona-6,8-diynamido)-3,3-dimethylbutanoyl)-4-hydroxy-N—((S)-1-(4-(4-methylthiazol-5-yl)phenyl)ethyl)pyrrolidine-2-carboxamide]	> 500	> 500	–	–
(2S,4R)-1-((S)-2-(9-(4-(4-chlorophenyl)-5-((4-(4-(((4-(((R)-4-morpholino-1-(phenylthio)butan-2-yl)amino)-3-((trifluoromethyl)sulfonyl)phenyl)sulfonyl)carbamoyl)phenyl)piperazin-1-yl)methyl)-3,6-dihydropyridin-1(2H)-yl)-9-oxononanamido)-3,3-dimethylbutanoyl)-4-hydroxy-N—((S)-1-(4-(4-methylthiazol-5-yl)phenyl)ethyl)pyrrolidine-2-carboxamide [Example 4]	–	–	50 to 150	< 50
